Reference: patent US20260345556A1, “Pharmaceutical Composition for Preventing or Treating Nephritis” (Daewoong Pharmaceutical Co., Ltd., priority 2022, published 2026)

How the values were obtained:
[1] = system: Rat kidney cell line (NRK-49F cell line); assay: Fibrotic factor inhibition in rat kidney cell line (western blot); assay type: cell-based; settings: 5 ng/ml TGFb, 2.5, 5, 10 μM, 48 hours, FIG. 6
[2] = system: C57BL/6 male mice; assay: NTN (Nephrotoxic Serum-Induced Nephritis) model; assay type: in vivo, mouse; settings: oral 5, 10, 20 mg/kg for 7 days from disease induction
Experimental: After sensitizing C57BL/6 male mice with 200 μg sheep IgG and Freund's […] adjuvant, 10 μg of sheep nephrotoxic serum was injected after five days to induce disease. From the day the disease was induced, the compounds of Examples were orally administered at doses of 5 mg/kg, 10 mg/kg, and 20 mg/kg for 7 days, respectively. Saline was administered to the negative control group (vehicle). On day 8, renal function (uPCR, BUN) was assessed.
The NTN model is a glomerulonephritis model that causes inflammation in the glomeruli, which induces proteinuria.

[3] = system: CD4+ T cells; assay: CD4+ T cell proliferation inhibition (CFSE staining, flow cytometry); assay type: cell-based; settings: human blood CD4+ T cells; 1.25, 2.5, 5, 10 μM; 5 days; FIG. 2
Experimental: (§1) PBMCs were transferred to a new tube using a pipette. After RBC lysis buffer was added to PBMC, centrifugation was performed, and then CD8 or CD4 cells were isolated using CD8 MicroBeads (Miltenyl Biotec, 130-045-201) or CD4 MicroBeads (Miltenyl Biotec, 130-096-533). A CFSE (-(and-6)-Carboxyfluorescein Diacetate, Succinimidyl Ester) labeling solution (Invitrogen, C1157) was added to the isolated cells. The compounds of Examples were dissolved in DMSO to make a 5 mM stock, then treated to make 1.25 μM, 2.5 μM, 5 μM, and 10 μM, respectively. After 5 days, the degree of cell proliferation was measured by the amount of CFSE staining using flow cytometry, and the results are shown in FIG. 2.

[4] = system: C57BL/6 male mice; assay: Mouse renal failure treatment model by Adenine diet; assay type: in vivo; settings: oral once a day 5, 10, 20 mg/kg for 2 weeks, starting 2 weeks after start of adenine
Experimental: (§2) A feed containing adenine was administered to C57BL/6 male mice as described in Ali et al. J Pharmacol Toxicol Methods 2013; Jia et al. BMC Nephrol 2013; Tanaka et al. Am J Pathol 2009. Starting 2 weeks after the start of adenine administration, 5 mg/kg, 10 mg/kg and 20 mg/kg of the compounds of Examples were orally administered daily for 2 weeks (FIG. 4). Physiological saline was administered to the negative control group (vehicle). Blood BUN and Creatinine, which are the primary indicators of kidney function, were measured.
Further, the degree of fibrosis of the mouse kidney tissue was measured through immunochemical staining, and the results are shown in FIG. 5.

[5] = system: gdT cells; assay: Inhibition of IL-17 factor in gdT cells (IL-17A ELISA); assay type: cell-based; settings: gdT cells from normal human blood; 10 μM; IL-2 and IL-15 10 ng/ml each; FIG. 3
Experimental: After collecting 10 ml of normal human blood, ficoll density gradient medium (Cytiva, 17144003) and PBS, the immune cell layer (PBMC) was isolated using a centrifuge. PBMCs were transferred to a new tube using a pipette. After RBC lysis buffer was added to PBMC, centrifugation was performed, and then 10 ng/ml of human IL-2 and IL-15 protein (cytokine) were respectively added to the cells, and cultured (for the purpose of inducing IL-17A). The compounds of Examples were dissolved in DMSO to make a 5 mM stock, and then 10 μM of the example compound was treated. On the 3rd and 5th days of cytokine treatment, 10 ng/ml of human IL-2 and IL-15 proteins (cytokine) were added, centrifuged, and the supernatant was collected. The IL-17A expression level was confirmed with the collected supernatant using an IL-17A ELISA kit (DY371, R&D Systems), and the results are shown in FIG. 3.

[6] = system: human primary kidney cells; assay: Fibrotic factor inhibition in human primary kidney cells (western blot); assay type: cell-based; settings: 5 ng/ml TGFb, 1.25 µM, 2.5 μM, 5 μM, 48 hours, FIG. 7
Experimental: Digestion buffer was added to human kidney tissue (preserved after biopsy), cut into small pieces with scissors, and then disintegrated through a shaker incubation for 90 minutes. After filtering the disintegrated tissue through a 70 μm filter cell strainer, the remaining tissue was filtered once again using a 40 μm filter cell strainer. The filtered disintegrated tissue solution was centrifuged, and the cells were isolated and cultured. The cultured cells were treated with 5 ng/ml TGFb and […], 2.5 μM, and 5 μM of the compounds of Examples, respectively, and then 48 hours later, cells were harvested, and western blot was performed to quantitatively analyze fibrotic factor proteins.

[7] = system: CD8+ T cells; assay: CD8+ T cell proliferation inhibition (CFSE staining, flow cytometry); assay type: cell-based; settings: human blood CD8+ T cells; 1.25, 2.5, 5, 10 μM; 5 days; FIG. 2
Experimental: as §1

[8] = system: C57BL/6 male mice; assay: Mouse renal failure prevention model by Adenine diet; assay type: in vivo; settings: oral once a day 5, 10, 20 mg/kg for 4 weeks, simultaneously with adenine
Experimental: as §2, with “2009. Simultaneously with” for “2009. Starting 2 weeks after”, “10 mg/kg,” for “10 mg/kg”, “for 4” for “for 2”, “(FIG. 8).” for “(FIG. 4).”
Additionally, the degree of fibrosis of the mouse kidney tissue was measured through immunochemical staining.

O[C@H]1CCCN[C@@H]1CCCn1cnc2c(Cl)c(Cl)ccc21 [Example]
fibrotic factor collagen [1]: significantly inhibited | fibrotic factor fibronectin [1]: significantly inhibited | fibrotic factor αSMA [1]: significantly inhibited | effect on damaged glomerular tissue ([2]; FIG. 10 and FIG. 11 (immunochemical staining)): effective in damaged glomerular tissue | proteinuria (uPCR) ([2]; assessed day 8, PRSi 5 mg/kg on the left side of FIG. 10): significantly reducing proteinuria | CD4+ T cell proliferation [3]: cell proliferation is inhibited | deterioration of renal function (blood BUN and Creatinine) ([4]; FIG. 4): significantly inhibited in a dose-dependent manner | accumulation of collagen in renal tissue (immunochemical staining) ([4]; FIG. 5): significantly inhibited in a dose-dependent manner | IL-17 cytokine inhibition [5]: inhibited | fibrotic factor collagen [6]: significantly inhibited | fibrotic factor fibronectin [6]: significantly inhibited | fibrotic factor αSMA [6]: significantly inhibited | CD8+ T cell proliferation [7]: cell proliferation is inhibited | deterioration of renal function (blood BUN and Creatinine) ([8]; FIG. 8): significantly inhibited in a dose-dependent manner | preventive effect on kidney damage caused by Adenine diet ([8]; FIG. 8): exhibited preventive effect | collagen accumulation in renal tissue (immunochemical staining) ([8]; FIG. 9): significantly inhibited in a dose-dependent manner
